Measured values: patent publication US5760036A, “Aminediol protease inhibitors” (E. R. Squibb & Sons, Inc., priority 1995, dated 1998)
Counter-ions that a name gives are not always drawn. Like-named read-outs stand apart in the source and are kept apart here.

Columns and labels:
HIV protease = molecular target: T1, HIV protease (Human immunodeficiency virus type 1 group M subtype B, UniProt P04585); assay: HIV Protease Assay; format: biochemical
T1 construct: and purified protease
How it was run: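 At a single final concentration of 10 μM (4% DMSO), inhibitors were added to a 30-minute, 37° C reaction of purified enzyme with 450 μM H2N-Val-Ser-Gln-Asn-(β-naphthyl-alanine)-Pro-Val-Ile-OH at pH 5.5 (sodium acetate, BSA). Hydrolysis was quantified by reverse-phase HPLC with 220 nm detection after acid quench.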

[1] = system: RF strain of HIV (CEM-SS cells); assay: Cell Culture Anti-HIV Activity (cell viability, formazan); format: cell-based; details: CEM-SS cells, RF strain of HIV, multiplicity of infection 0.04, 6 days at 37° C., 450 nm, read-out: HIV (CEM Cells) IC50
How it was run: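 Half-log compound dilutions added to CEM-SS cells (5000/well) carrying HIV RF (MOI 0.04), 6 days, 37° C. Cell protection measured as formazan from tetrazolium, A450. IC50: drug level restoring infected-cell formazan to 50% of the uninfected untreated control.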

[2] = pH 5.5, read-out: HIV Protease % Inhibition at 10 μM
[3] = Human immunodeficiency virus 1, CEM-SS, 144 h
[4] = pH 5.5, 10 μM inhibitor, 4% DMSO, 450 μM substrate, pH 5.5, 30 minutes at 37° C., RP-HPLC, read-out: HIV Protease % Inhibition at 10 μM

| inhibition at 10 µM (HIV protease; [2]) [%] | inhibition at 10 µM (HIV protease; [4]) [%] | Compound | IC50 [1, 3] [nM] | IC50 [1] [nM] |
| --- | --- | --- | --- | --- |
| 99 | – | CC(C)(O)COc1ccc(C[C@H](NC(=O)OC(C)(C)C)[C@H](O)CNC[C@@H](O)[C@H](Cc2ccccc2)NC(=O)OC(C)(C)C)cc1 [Compound 358, [1S-[1R*,2S*(2S*,3R*)]]-[3-[[3-[[(1,1-Dimethylethoxy)carbonyl]amino]-2-hydroxy-4-[4-(2-hydroxy-2-methylpropoxy)phenyl]butyl]amino]-2-hydroxy-1-(phenylmethyl)propyl]carbamic acid, 1,1-dimethylethyl ester] | 100 | – |
| – | 97 | CC(C)(C)OC(=O)N[C@@H](C/C=C/c1ccc(OCC(=O)N2CCOCC2)cc1)[C@H](O)CNC[C@@H](O)[C@H](Cc1ccccc1)NC(=O)OC(C)(C)C [Compound 276, [1S-[1R*,2S*(2S*,3R*)]]-[3-[[3-[[(1,1-Dimethylethoxy)carbonyl]amino]-2-hydroxy-6-[4-[2-(4-morpholinyl)-2-oxoethoxy]phenyl]-5-hexenyl]amino]-2-hydroxy-1-(phenylmethyl)propyl]carbamic acid, 1,1-dimethylethyl ester] | 130 | – |
| – | 99 | C[C@@H](O)[C@H](NC(=O)OCc1ccccc1)C(=O)N[C@@H](Cc1ccccc1)[C@H](O)CNC[C@@H](O)[C@H](Cc1ccccc1)NC(=O)OC(C)(C)C [Compound 100, [S-[1R*,2S*(2S*,3R*)]-N-[3-[[3-[[(1,1-Dimethylethoxy)carbonyl]amino]-2-hydroxy-4-phenylbutyl]amino]-2-hydroxy-1-(phenylmethyl)-propyl]-N^2 [(phenylmethoxy)carbonyl]-L-threoninamide] | 230 | – |
| – | 98 | CCC(C)(C)OC(=O)N[C@@H](Cc1ccccc1)[C@H](O)CNC[C@@H](O)[C@H](Cc1ccccc1)NC(=O)OC(C)(C)CC [Compound 138, [R-(R*,S*)]-[Iminobis[2-hydroxy-1-(phenylmethyl)-3,1-propandiyl]]biscarbamic acid, bis(1,1-dimethylpropyl)ester] | > 800 | – |
| – | 96 | CC(C)(C)OC(=O)N[C@@H](Cc1ccccc1)[C@H](O)CNC[C@@H](O)[C@H](Cc1ccccc1)NC(=O)OC1CCS(=O)(=O)C1 (stereo partly drawn) [Compound 360, [1S-(1R*,2S*)]-[Iminobis[2-hydroxy-1-(phenylmethyl)-3,1-propanediyl)]bis[carbamic acid], 1,1-dimethylethyl tetrahydro-1,1-dioxo-3-thienyl ester] | 450 | – |
| – | 98 | CC(C)[C@H](NC(=O)[C@H](Cc1ccccc1)NC(=O)OCc1ccccc1)C(=O)N[C@@H](Cc1ccccc1)[C@H](O)CNC[C@@H](O)[C@H](Cc1ccccc1)NC(=O)OC(C)(C)C [Compound 62, [1S-[1R*,2S*(2S*,3R*)]-N-[3-[[3-[[(1,1-Dimethylethoxy)carbonyl]amino]-2-hydroxy-4-phenylbutyl]amino]-2-hydroxy-1-(phenyl-methyl)propyl]-N^2-[(phenylmethoxy)carbonyl]-L-phenylalanyl]-L-valinamide] | 50 | – |
| 100 | – | CC(C)(C)OC(=O)N[C@@H](Cc1ccccc1)[C@H](O)CNC[C@@H](O)[C@H](Cc1ccccc1)NC(=O)C1(O)CCCC1(C)C (single isomer, unassigned; isomer a) [Compound 321, [1S-[1R*,2S*(2S*,3R*)]]-[3-[[3-[[2,2-Dimethyl-1-hydroxycyclopentyl)-carbonyl]amino]-2-hydroxy-4-phenylbutyl]amino]-2-hydroxy-1-(phenylmethyl)propyl]carbamic acid, 1,1-dimethylethyl ester, isomer A] | – | 200 |
| – | 97 | CC(C)(C)OC(=O)N[C@@H](Cc1ccccc1)[C@H](O)CNC[C@@H](O)[C@H](Cc1ccccc1)NC(=O)OC(C)(C)CCOCc1ccccc1 [Compound 158, [1S-(1R*,2S*)]-[Iminobis[2-hydroxy-1-(phenylmethyl)-3,1-propanediyl]biscarbamic acid, 1,1-dimethylethyl 1,1-dimethyl-3-(phenylmethoxy)-propyl ester] | > 1800 | – |
| – | 99 | CC(C)[C@H](NC(=O)OCc1ccc(-c2ccccc2)cc1)C(=O)N[C@@H](Cc1ccccc1)[C@H](O)CNC[C@@H](O)[C@H](Cc1ccccc1)NC(=O)OC(C)(C)C [Compound 68, [S-[1R*,2S*(2S*,3R*)]]-N^2-[([1,1-Biphenyl]-4-ylmethoxy]carbonyl-N-[3-[[3-[[(1,1-dimethylethoxy)carbonyl]amino]-2-hydroxy-4-phenylbutyl]amino]-2-hydroxy-l-(phenylmethyl)[propyl]-L-valinamide] | 110 | – |
| – | 99 | CC(C)(C)OC(=O)N[C@@H](Cc1ccccc1)[C@H](O)CNC[C@@H](O)[C@H](Cc1ccccc1)NC(=O)[C@@H](NC(=O)OCc1ncc(-c2ccccc2)o1)C(C)(C)C [Compound 347, [S-(1R*,2S*(2S*,3R*)]]-[2,2-Dimethyl-1-[[[3-[[3-[[1,1-dimethylethoxy)-carbonyl]amino]-2-hydroxy-4-phenylbutyl]amino]-2-hydroxy-1-(phenylmethyl)propyl]amino]carbonyl]-propyl]carbamic acid, (5-phenyl-2-oxazolyl)methyl ester] | 50 | – |
| – | 100 | C[C@H](NC=O)C(=O)N[C@H](C(=O)N[C@@H](Cc1ccccc1)[C@H](O)CNC[C@@H](O)[C@H](Cc1ccccc1)NC(=O)OC(C)(C)C)C(C)(C)C (relative stereo) [Compound 284, [1R*,2S*(2S*,3R*)]-N-[3-[[(1,1-Dimethylethoxy)carbonyl]amino]-2-hydroxy-4-phenylbutyl]amino]-2-hydroxy-1-(phenylmethyl)propyl]-N^2-(N-formyl-L-alanyl)-3-methyl-L-valinamide] | 4400 | – |
| – | 100 | CC(C)[C@H](NC(=O)N(C)Cc1ccccn1)C(=O)N[C@@H](Cc1ccccc1)[C@H](O)CNC[C@@H](O)[C@H](Cc1ccccc1)NC(=O)[C@@H](NC(=O)N(C)Cc1ccccn1)C(C)C [Compound 75, [S-(1R*,2S*)]-N,N'-[Iminobisr[2-hydroxy-1-(phenylmethyl)-3,1-propanediyl]bisr[N^2-[[methyl(2-pyridinylmethyl)amino]carbonyl]-L-valinamide] | 5000 | – |
| – | 99 | CNC(=O)N(C)[C@H](C(=O)N[C@@H](Cc1ccccc1)[C@H](O)CNC[C@@H](O)[C@H](Cc1ccccc1)NC(=O)OC(C)(C)C)C(C)(C)C (relative stereo) [Compound 342, [1R*,2S* (2S*, 3R*)]-N-[3-[[3-[[(1,1-Dimethylethoxy)carbonyl]amino]-2-hydroxy-4-phenylbutyl]amino]-2-hydroxy-1-(phenylmethyl)propyl]-N^2-[(methylamino)carbonyl]-N^2-3-dimethyl-L-valinamide] | 70 | – |
| – | 96 | CC(C)[C@H](NC(=O)OCCO)C(=O)N[C@@H](Cc1ccccc1)[C@H](O)CNC[C@@H](O)[C@H](Cc1ccccc1)NC(=O)OC(C)(C)C (relative stereo) [Compound 218, [1R*,2S*(2S*,3R*)]-N-[3-[[3-[[(1,1-Dimethylethoxy)carbonyl]amino]-2-hydroxy-4-phenylbutyl]amino]-2-hydroxy-1-(phenylmethyl)propyl]-N^2-[(2-hydroxyethoxy)carbonyl]-L-valinamide] | 1100 | – |
| – | 88 | CC(C)(C)OC(=O)N[C@@H](Cc1ccccc1)[C@H](O)CNC[C@@H](O)[C@H](Cc1ccccc1)NC(=O)OCc1cccnc1 [Compound 256, [R-(R*,S*)]-[Iminobis[2-hydroxy-1-(phenylmethyl)-3,1-propanediyl)]biscarbamic acid. 1,1-dimethylethyl-3-pyridinylmethyl ester] | 1500 | – |
| – | 99 | CC(C)[C@H](NC(=O)C(N)Cc1ccccc1O)C(=O)N[C@@H](Cc1ccccc1)[C@H](O)CNC[C@@H](O)[C@H](Cc1ccccc1)NC(=O)OC(C)(C)C (relative stereo) [Compound 211, [1R*,2S*(2S*,3R*)]-N-[3-[[3-[[(1,1-Dimethylethoxy)carbonyl]amino]-2-hydroxy-4-phenylbutyl]amino]-2-hydroxy-1-(phenylmethyl)propyl]-N^2-(2-hydroxyoxyphenylalanyl)-L-valinamide, fumarate (2:3) salt] | 900 | – |
| – | 89 | CC(C)(C)OC(=O)N[C@@H](Cc1ccccc1)[C@H](O)CNC[C@@H](O)[C@H](Cc1ccccc1)NC(=O)OC1(C)CCOCC1 [Compound 166, [1S-(1R*,2S*)]-[Iminobis[2-hydroxy-1-(phenylmethyl)-3,1-propanediyl]]bis[carbamic acid], 1,1-dimethylethyl-4-methyltetrahydropyran-4-yl-ester] | 1700 | – |
| – | 98 | CC(C)[C@H](NC(=O)OCc1nc2ccccc2c(=O)[nH]1)C(=O)N[C@@H](Cc1ccccc1)[C@H](O)CNC[C@@H](O)[C@H](Cc1ccccc1)NC(=O)OC(C)(C)C (relative stereo) [Compound 222, [1R*,2S*(2S*,3R*)]-N^2-[[(3,4-Dyhydro-4-oxo-2-quinazolinyl)methoxy]carbonyl]-N-[3-[[3-[[(1,1-dimethylethoxy)carbonyl]amino]-2-hydroxy-4-phenylbutyl]amino]-2-hydroxy-1-(phenylmethyl)propyl]-L-valinamide] | 380 | – |
